Measurements reported in patent US11771685B2, “Compounds for the treatment of neurological or mitochondrial diseases” (MUSC FOUNDATION FOR RESEARCH DEVELOPMENT, priority 2018, dated 2023).
Where two headings read alike, the source gives them in different places.

How the values were obtained:
HT22 cells = assay: HT22 oxytosis (glutamate-induced cell death) neuroprotection assay; type: cell-based, mouse; conditions: 10 mM Glu
Method: The HT22 murine hippocampal cell system was chosen as an initial phenotypic screen for neuroprotective efficacy (Andreux et al., 2013; Andreux et al., 2014; Ohlow et al., 2017; Schubert and Maher, 2012). HT22 cells exposed to high extracellular Glu ([…]) undergo oxytosis, a non-apoptotic programmed cell death involving glutathione (GSH) depletion followed by ROS accumulation, oxidative damage, and a cytotoxic signaling cascade (Tan et al., 2001). Glu blocks the −xC cystine antiporter, causing (Tan et al., 2001) cells to accumulate severe oxidative stress, mitochondrial depolarization, disrupted mitochondrial morphology, and Ca^2+ influx (Tan et al., 2001; Yang et al., 2011; Cheng et al., 2013—cellular events that may occur in neurological diseases, including epilepsy. Thus, the immortalized HT22 cell line is a well-established model of neuronal oxidative stress (Sagara and Schubert, 1998; Matsumoto et al., 1996; Albrecht et al., 2010; Ha and Park, 2006; van Leyen et al., 2005; Tobaben et al., 2011), and a verified model of neurodegeneration to screen for potential neuroprotective drugs (Albrecht et al., 2010; van Leyen et al., 2008; Lewerenz et al., 2009; Lewerenz et al., 2003).
Consistent with that work, most of the 2-amino compounds achieved protection of HT22 cells against glutamate-induced oxytosis in the nM to μM range. […] Neuroprotection based on relative cell viability compared to +Glu and −Glu control cells was measured.
The HT22 neuronal cell line is a subclone of HT4, derived from the mouse hippocampus (Morimoto and Koshland, 1990). […] The HT22 cells used in this study were kindly provided by Dr. David Schubert (The Salk Institute for Biological Studies, La Jolla, CA, USA). The cells were grown in Dulbecco's Modified Eagle's Medium (DMEM/high glucose) supplemented with 10% fetal bovine serum (Hyclone) and 5 mL of antibiotic-antimycotic (Amphotericin B, Penicillin, and Streptomycin; Invitrogen) at 37° C. in 5% CO2.
HT-22 cells were seeded onto 96-well plates at 2.5×10^3 cells per well in 75 μL of medium and maintained at 37° C. in 5% CO2 overnight prior to the initiation of experimental treatments. For glutamate toxicity testing, cells were subsequently treated with 25 μL of medium containing glutamate (monosodium glutamate, Sigma, 1 M stock concentration in media, to achieve a final concentration of 10 mM) plus compound (stock in DMSO) and maintained at 37° C. in 5% CO2 for 24 hr. CellTiter-Blue® (resazurin cell viability assay reagent) was then added to each well at a final concentration of 0.125 mg/mL. The mixture was allowed to incubate for 2-4 hr until sufficient color change occurred. Cell viability was measured as a function of resorufin fluorescence intensity using a Tecan M200 Pro spectrophotometer, 560 nm/590 nm (excitation/emission). Cell viability was calculated as a percentage compared with untreated controls. EC50s were determined using GraphPad Prism's “log(inhibitor) vs. normalized response-Variable slope” function. Morphology of HT22 cells following treatments was determined by phase-contrast microscopy.
(§1) Statistical analyses were performed with GraphPad Prism 6 software. For the in vitro HT22 oxytosis assay, dose-response data were fit using GraphPad Prism's log(inhibitor) vs normalized response-variable slope parameters to determine EC50 values and 95% confidence intervals. For the zebrafish locomotive anti-seizure activity data, multiple comparisons were made using a one-way analysis of variance (ANOVA) with a Kruskal-Wallis Test, followed by the Dunn's Method to determine significant differences between all pairs or between control and experimental groups using the Dunn Method for Joint Ranking. Differences were considered statistically significant when p<0.05. Data from zebrafish experiments are represented as scatter dot plots of individual measurements, with means±standard deviation indicated by bars.

Zebrafish larvae = assay: In vivo toxicology in zebrafish larvae; conditions: 7 dpf larvae, 5-20 μM, observed 1, 5 and 24 hr
Method: Zebrafish larvae, 7 days post-fertilization (dpf), were exposed to compounds at 20, 15, 10, and 5 μM, six larvae per compound. Animals were observed 1, 5, and 24 hr after dosing for overt toxicity (altered survival, morbidity, morphological deformity). Heart rate, behavior, and startle response were monitored at each time point.
Zebrafish (AB strain) were obtained from the Zebrafish International Resource Center (supported by P40 RR012546 from NIH—NCRR). Zebrafish were maintained and crossed according to standard methods (Westerfield, 2000). Fertilized eggs were collected and placed in E3 embryo medium and positioned in an incubator set at 28.5° C. with a 14/10-hr light/dark cycle (Kimmel et al., 1995). To determine the lethal dose of each compound, 96-well plates containing one zebrafish (7 days post-fertilization, dpf) per well in 100 μL of tank water were used. 100 μL of each compound (0.5-15 μM) was added to each well for 12 animals (one row) for a final volume of 200 μL. One row of larvae was used as dimethyl sulfoxide (DMSO)-only controls. […] All zebrafish studies were approved by the Medical University of South Carolina Institutional Animal Care and Use Committee (#180278) and performed in accordance with the guidelines.
Using a 96-well plate, 7 dpf zebrafish were placed one per well with 100 μL of tank water. 100 μL of each compound was then added to each well for 12 animals (one row) for a final volume of 200 μL. One row of zebrafish larvae was used as DMSO only controls.

[1] = tested on: PTZ-induced seizure activity in zebrafish larvae; assay: Zebrafish PTZ-induced seizure model; type: in vivo; conditions: for minimal effective concentration / anti-seizure activity: 7 dpf larvae; for minimal effective concentration: 1 hr pre-treatment, 10 mM PTZ, read-out: Anti-seizure activity: lowest tested dose with significant difference vs PTZ-only group; for inhibition in vivo at 5 µM / inhibition in vivo at 10 µM: read-out: reduction of PTZ-induced locomotor activity; for anti-seizure activity: PTZ
Method: The zebrafish PTZ-induced seizure model was used to determine the most promising compounds' in vivo efficacy. Zebrafish larvae (7 dpf) were treated with the compound for 1 hr prior to inducing seizures with PTZ. As established by previous larval zebrafish anti-seizure studies (Rahn et al., 2014; Hansen et al., 2004; Baraban et al., 2005), total distance traveled by each fish after seizure induction was measured and used as a proxy for seizure activity. Following collection of locomotor data, observation of a startle response and visual inspection for abnormal morphology confirmed that alterations in swim activity were not caused by compound toxicity.
We induced seizures in 7 dpf zebrafish larvae by the addition of […] PTZ as originally developed by Baraban et al., 2005. In a 48-well plate, one 7-dpf zebrafish was added per well. Larvae were dosed with each compound at a sub-lethal dose 1 hr prior to PTZ treatment. Two control rows were included with each experiment—tank water only control and PTZ only. Seizures were induced by adding PTZ to wells to yield a final concentration of 10 mM. After 5 min, the plate was transferred to the Daniovision instrument (Noldus Information Technology) and the chamber light was turned on. After 2 min, MediaRecorder (Noldus) was used to record video for 15 min. A small number of videos were acquired at 25 frames per second, but the majority of data were acquired at 60 frames per second. […] Ethovision XT software (Noldus) was used to track the fish movement from the video images in order to calculate the total distance traveled over 15 min. All experimental comparisons were made between animals from the same clutch.
as §1

[2] = Mus musculus, HT-22, HT22 cells, 24 hr, 95% CI in parentheses
[3] = Mus musculus, HT-22, 24 h, HT22 cells, 24 hr, 95% CI in parentheses
[4] = HT22 cells, 24 hr, 95% CI in parentheses
[5] = Mus musculus, HT-22, HT22 cells

Structure (SMILES)	EC50 (HT22 cells; [3]) [nM]	minimal effective concentration ([1]; Danio rerio) [µM]	also measured
O=C1C=C(NCC#Cc2ccccc2)C(=O)c2ccccc21 [Compound 8, 2-((3-Phenylprop-2-yn-1-yl)amino)naphthalene-1,4-dione]	–	–	EC50 (HT22 cells; [2]): 162 nM; overt toxicity observation (Zebrafish larvae): not lethal at any concentration
CCCC#CCOC1=CC(=O)c2ccccc2C1=O [Compound 30, 2-(Hex-2-yn-1-yloxy)naphthalene-1,4-dione]	249	5	inhibition in vivo at 5 µM ([1]; Danio rerio): 53%; inhibition in vivo at 10 µM ([1]; Danio rerio): 68%
O=C1C=C(NCC#Cc2cccc(C(F)(F)F)c2)C(=O)c2ccccc21 [Compound 13, 2-((3-(3-(Trifluoromethyl)phenyl)prop-2-yn-1-yl)amino)naphthalene-1,4-dione]	~500	> 10	EC50 (HT22 cells; [4]): 584 nM; minimal effective concentration [1]: >10 µM
CCCCOC1=CC(=O)c2ccccc2C1=O [Compound 26, 2-Butoxynaphthalene-1,4-dione]	–	–	EC50 (HT22 cells; [2]): 78 nM
O=C1C=C(NCC#Cc2ccc(C(F)(F)F)cc2)C(=O)c2ccccc21 [Compound 12, 2-((3-(4-(Trifluoromethyl)phenyl)prop-2-yn-1-yl)amino)naphthalene-1,4-dione]	~500	> 10	EC50 (HT22 cells; [4]): 566 nM; minimal effective concentration [1]: >10 µM
CC(C)=CCC/C(C)=C/CNC1=C(Br)C(=O)c2ccccc2C1=O [Compound 23, (E)-2-Bromo-3-((3,7-dimethylocta-2,6-dien-1-yl)amino)naphthalene-1,4-dione]	133	> 10	anti-seizure activity [1]: ineffective
O=C1C=C(NCC#Cc2cccc(F)c2)C(=O)c2ccccc21 [Compound 9, 2-((3-(3-Fluorophenyl)prop-2-yn-1-yl)amino)naphthalene-1,4-dione]	216	–	–
CCCCC#CCOC1=CC(=O)c2ccccc2C1=O [Compound 31, 2-(Hept-2-yn-1-yloxy)naphthalene-1,4-dione]	76.1	10	anti-seizure activity [1]: reduced swim distance to control levels; inhibition in vivo at 5 µM ([1]; Danio rerio): 48%; toxic effects during PTZ-induced seizure experiments ([1]; lack of survival or behavioral impairments): higher-than-normal occurrences of toxic effects
CC#CCC(CO)NC1=CC(=O)c2ccccc2C1=O (racemic) [Compound 18, Rac-2-((1-hydroxyhex-4-yn-2-yl)amino)naphthalene-1,4-dione]	2170	> 10	EC50 (HT22 cells; [5]): > 2000 nM
CC(C)=CCC/C(C)=C/CNC1=CC(=O)c2ccccc2C1=O [Compound 22, (E)-2-((3,7-Dimethylocta-2,6-dien-1-yl)amino)naphthalene-1,4-dione]	9220	20	EC50 (HT22 cells; HT22 cells): ~9000 nM; EC50 (HT22 cells; [5]): ~9200 nM; anti-seizure activity [1]: activity at 20 and 40 μM that resulted from sedation
O=C1C=C(NCC#Cc2cccnc2)C(=O)c2ccccc21 [Compound 11, 2-((3-(Pyridin-3-yl)prop-2-yn-1-yl)amino)naphthalene-1,4-dione]	290	–	–
C=CCC#CCNC1=CC(=O)c2ccccc2C1=O [Compound 6, 2-(Hex-5-en-2-yn-1-ylamino)naphthalene-1,4-dione]	2640	10	inhibition in vivo at 5 µM ([1]; Danio rerio): ~65%; inhibition in vivo at 10 µM ([1]; Danio rerio): 85%
COc1cccc(C#CCNC2=CC(=O)c3ccccc3C2=O)c1 [Compound 10, 2-((3-(3-Methoxyphenyl)prop-2-yn-1-yl)amino)naphthalene-1,4-dione]	215	> 20	–
CC(C)=CCC/C(C)=C/CNC1=C(C)C(=O)c2ccccc2C1=O [Compound 24, (E)-2-((3,7-Dimethylocta-2,6-dien-1-yl)amino)-3-methylnaphthalene-1,4-dione]	2740	> 10	EC50 (HT22 cells; [5]): ~2700 nM; anti-seizure activity [1]: ineffective
C#CCC(NC1=CC(=O)c2ccccc2C1=O)c1ccccc1 (racemic) [Compound 21, Rac-2-((1-phenylbut-3-yn-1-yl)amino)naphthalene-1,4-dione]	6150	5	–
O=C1C=C(OCc2ccccc2)C(=O)c2ccccc21 [Compound 27, 2-(Benzyloxy)naphthalene-1,4-dione]	168	–	–
CCC#CCOC1=CC(=O)c2ccccc2C1=O [Compound 29, 2-(Pent-2-yn-1-yloxy)naphthalene-1,4-dione]	~300	≤ 5	EC50 (HT22 cells; [4]): 307 nM; inhibition in vivo at 5 µM ([1]; Danio rerio): 60%; inhibition in vivo at 10 µM ([1]; Danio rerio): 53%
CC#CCOC1=CC(=O)c2ccccc2C1=O [Compound 28, 2-(But-2-yn-1-yloxy)naphthalene-1,4-dione]	168	–	–
C#CCC(C)NC1=CC(=O)c2ccccc2C1=O (racemic) [Compound 20, Rac-2-(pent-4-yn-2-ylamino)naphthalene-1,4-dione]	3690	> 10	EC50 (HT22 cells; [5]): > 2000 nM
